Assay results reported in ChEMBL document CHEMBL1130791, “Novel HIV-protease inhibitors containing beta-hydroxyether and -thioether dipeptide isostere surrogates: modification of the P3 ligand” (Bioorg Med Chem Lett, 1998).
The source made the active and inactive calls. No cut-off for these calls is given here.

Tests used:
[1] = molecular target: T1, Human immunodeficiency virus type 1 protease (Human immunodeficiency virus 1, UniProt Q72874); assay: Inhibitory activity against HIV-1 protease using scintillation proximity assay (SPA assay)
[2] = molecular target: Human immunodeficiency virus type 1 protease (Human immunodeficiency virus 1) (UniProt Q72874); assay: Antiviral activity against the HTLV-III strain of HIV-1 in CEM cell lines; format: functional, cell-based; conditions: CCRF-CEM
[3] = molecular target: Human immunodeficiency virus type 1 protease (Human immunodeficiency virus 1) (UniProt Q72874); assay: Inhibitory activity against HIV-1 protease using scintillation proximity assay (SPA assay) at a concentration of 500 nM
[4] = molecular target: T1, Human immunodeficiency virus type 1 protease; assay: Inhibitory activity against HIV-1 protease using scintillation proximity assay (SPA assay); NA means not active
CCRF-CEM = assay: Compound was evaluated for antiviral activity against the HTLV-III strain of HIV-1 in CEM cell lines; NA means not active; format: functional, cell-based; conditions: Homo sapiens

Row | SMILES | IC50 [1] | ID50 [2] | other results
1 | CC(C)(C)NC(=O)c1ccccc1NC[C@@H](O)[C@H](Cc1ccccc1)NC(=O)[C@H](CC(N)=O)NC(=O)c1ccc2ccccc2n1 | 94 nM | – | –
2 | CC(C)(C)NC(=O)c1ccccc1OC[C@@H](O)[C@H](Cc1ccccc1)NC(=O)[C@H](CC(N)=O)NC(=O)c1ccc2c(c1)C(=O)c1ccccc1C2=O | 41 nM | 0.33 µM | –
3 | CC(C)(C)NC(=O)c1ccccc1OC[C@H](O)[C@H](Cc1ccccc1)NC(=O)[C@H](CC(N)=O)NC(=O)c1cnnc2ccccc12 | 500 nM | 13.4 µM | –
4 | CC(C)(C)NC(=O)c1ccccc1SC[C@@H](O)[C@H](Cc1ccccc1)NC(=O)[C@H](CC(N)=O)NC(=O)c1ccc2ccccc2n1 | 90 nM | – | –
5 | CC(C)(C)NC(=O)c1ccccc1OC[C@H](O)[C@H](Cc1ccccc1)NC(=O)[C@H](CC(N)=O)NC(=O)c1nc2ccccc2nc1O | – | 10.6 µM | inhibition [3]: 35%
6 | CC(C)(C)NC(=O)c1ccccc1SC[C@H](O)[C@H](Cc1ccccc1)NC(=O)[C@H](CC(N)=O)NC(=O)c1ccccn1 | – | – | IC50 [4]: Not Active
7 | CC(C)(C)NC(=O)c1ccccc1OC[C@H](O)[C@H](Cc1ccccc1)NC(=O)[C@H](CC(N)=O)NS(=O)(=O)c1ccc2ccccc2c1 | – | – | ID50 (CCRF-CEM): inactive
8 | CC(C)(C)NC(=O)c1ccccc1OC[C@@H](O)[C@H](Cc1ccccc1)NC(=O)[C@H](CC(N)=O)NC(=O)c1cnc2ccccc2n1 | 63 nM | 0.63 µM | –
9 | CC(C)(C)NC(=O)c1ccccc1OC[C@H](O)[C@H](Cc1ccccc1)NC(=O)[C@H](CC(N)=O)NC(=O)c1ccc2c(c1)C(=O)c1ccccc1C2=O | 90 nM | 2.3 µM | –
10 | CC(C)(C)NC(=O)c1ccccc1SC[C@H](O)[C@H](Cc1ccccc1)NC(=O)[C@H](CC(N)=O)NC(=O)c1ccc2ccccc2c1 | 390 nM | 13.4 µM | –
11 | CC(C)(C)NC(=O)c1ccccc1OC[C@H](O)[C@H](Cc1ccccc1)NC(=O)[C@H](CC(N)=O)NC(=O)c1cc(O)c2ccccc2n1 | 410 nM | 11.2 µM | –
12 | CC(C)(C)NC(=O)c1ccccc1OC[C@@H](O)[C@H](Cc1ccccc1)NC(=O)[C@H](CC(N)=O)NS(=O)(=O)c1ccc2ccccc2c1 | – | – | ID50 (CCRF-CEM): inactive; inhibition [3]: 42%
13 | CC(C)(C)NC(=O)c1ccccc1OC[C@@H](O)[C@H](Cc1ccccc1)NC(=O)[C@H](CC(N)=O)NC(=O)c1ccc2c(c1)S(=O)(=O)c1ccccc1C2=O | 44 nM | 0.55 µM | –
14 | CC(C)(C)NC(=O)c1c(OC[C@@H](O)[C@H](Cc2ccccc2)NC(=O)[C@H](CC(N)=O)NC(=O)c2ccc3c(c2)C(=O)c2ccccc2C3=O)ccc2ccccc12 | 62 nM | 0.16 µM | –
15 | CC(C)(C)NC(=O)c1ccccc1OC[C@@H](O)[C@H](Cc1ccccc1)NC(=O)[C@H](CC(N)=O)NC(=O)c1nc2ccccc2nc1O | – | – | ID50 (CCRF-CEM): inactive; inhibition [3]: 36%
16 | CC(C)(C)NC(=O)c1ccccc1OC[C@H](O)[C@H](Cc1ccccc1)NC(=O)[C@H](CC(N)=O)NC(=O)c1cnc2ccccc2n1 | 100 nM | 0.61 µM | –
17 | CC(C)(C)NC(=O)c1ccccc1OC[C@@H](O)[C@H](Cc1ccccc1)NC(=O)[C@H](CC(N)=O)NC(=O)c1cnnc2ccccc12 | 130 nM | 9.3 µM | –
18 | CC(C)(C)NC(=O)c1ccccc1OC[C@@H](O)[C@H](Cc1ccccc1)NC(=O)[C@H](CC(N)=O)NC(=O)c1ccc2ccccc2n1 | 45 nM | – | –
19 | CC(C)(C)NC(=O)c1c(OC[C@@H](O)[C@H](Cc2ccccc2)NC(=O)[C@H](CC(N)=O)NC(=O)c2ccc3c(c2)S(=O)(=O)c2ccccc2C3=O)ccc2ccccc12 | 60 nM | 0.1 µM | –
